Test results reported in paper PMC4845012, “Unique behavior of Trypanosoma cruzi mevalonate kinase: A conserved glycosomal enzyme involved in host cell invasion and signaling” (Scientific Reports, 2016).
Where “and” joins values, the source holds several entries; their conditions need not be identical. Identical values can stand only once.

Key:
[1] = biological target: T1, rTcMVK (Trypanosoma cruzi, UniProt A0A165UDJ0); assay: coupled pyruvate kinase / lactate dehydrogenase assay, NADH at […] nm; assay type: biochemical; settings: MgCl2 […], glycine pH […] °C, dimer
T1 construct: gene MVK; N-terminal His6 tag (pET-28a, BamHI/HindIII), E. coli BL21; native 34 kDa; active dimer fraction from gel filtration
T1 sequence (A0A165UDJ0 43-364 limits assumed): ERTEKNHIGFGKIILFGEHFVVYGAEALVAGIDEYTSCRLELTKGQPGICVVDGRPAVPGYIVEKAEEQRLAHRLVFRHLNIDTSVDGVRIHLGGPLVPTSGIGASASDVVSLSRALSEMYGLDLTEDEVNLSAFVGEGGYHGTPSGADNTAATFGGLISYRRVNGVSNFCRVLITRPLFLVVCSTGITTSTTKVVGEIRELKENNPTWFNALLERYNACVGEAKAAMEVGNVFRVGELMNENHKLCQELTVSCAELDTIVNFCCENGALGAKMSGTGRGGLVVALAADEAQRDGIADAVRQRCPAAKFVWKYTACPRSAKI

[2] = biological target: recombinant Trypanosoma cruzi mevalonate kinase (rTcMVK) (Trypanosoma cruzi (G strain)); assay: SEC; Superdex 200 High Load 16/60 prep-grade, glycine buffer pH 9.0 with 0.15 M NaCl, after Ni-NTA; separates the oligomerization states of rTcMVK

## CC(O)(CCO)CC(=O)O (racemic) [(RS)-mevalonic acid]
[1]; ATP […], racemic mevalonate […] from hydrolysed lactone
  coupled pyruvate kinase / lactate dehydrogenase assay, NADH at 340 nm: In vitro assays using synthetic mevalonic acid confirmed enzymatic activity of recombinant TcMVK

## Nc1ncnc2c1ncn2[C@@H]1O[C@H](COP(=O)(O)OP(=O)(O)OP(=O)(O)O)[C@@H](O)[C@H]1O [ATP]
[1]; mevalonate […], blank without ATP
  coupled pyruvate kinase / lactate dehydrogenase assay, NADH at 340 nm: Blank assays were performed in the absence of ATP.

## recombinant Trypanosoma cruzi mevalonate kinase (rTcMVK) (enzyme)
[2]
  stoichiometry N: 4 and 2
